Reference: patent US8956996B2, “Method for reducing nitrous oxide emission from soils” (BASF SE, priority 2009, dated 2015)

What was measured:
[1] = system: N2O emission from soil; test: Loss of nitrate and ammonium nitrogen in LiHof soil, pyraclostrobin and boscalid (Example 3); conditions: for Effect on N2O emission from soil (in words): LiHof soil, fertilizer applied 1 day after compound (A); for Loss of NO3-N + NH4-N in mg N/10 g soil in 48 h: soil type LiHof, pyraclostrobin 250 g/ha, boscalid 2.33 g/L, fertilizer 1 day after compound (A), UTC 0.52
[2] = system: N2O emission from soils; test: N2O emission from potted corn after pyraclostrobin seed treatment, NPK fertilizer applied 10 days later (Example 1); type: in vivo, Zea mays
[3] = system: N2O emission from soil; test: Loss of nitrate and ammonium nitrogen in soil samples, Conway method, as indirect measure of N2O produced (Example 2); conditions: for Loss of NO3-N + NH4-N in mg N/10 g soil in 48 h: fertilizer 1 day after compound (A)
[4] = system: N2O emission from soils; test: Greenhouse trial: N2O emission from potted field soil planted with summer wheat (Example 4); type: in vivo; conditions: for Mean mg N2O-N/m^2: 4 weeks

SMILES: O=C(Nc1ccccc1-c1ccc(Cl)cc1)c1cccnc1Cl [Boscalid, boscalid]
- Effect on N2O emission from soil (in words) [1]: significantly reduced the N2O emission from soil
- Loss of NO3-N + NH4-N in mg N/10 g soil in 48 h [1]: 0.35 mg N/10 g soil

SMILES: COC(=O)N(OC)c1ccccc1COc1ccn(-c2ccc(Cl)cc2)n1 [Pyraclostrobin, pyraclostrobin]
- N2O increase over ambient ([2]; seed treatment 5 g/100 kg seeds, 0.3% NPK fertilizer HaKaPhos Blue applied on day 10, peak value on day 2 of three day measurement, N = 14, UTC 190): 107 ppbv/h
- Effect on N2O emission from soils (in words) ([2]; seed treatment, fertilizer applied 10 days after compound (A)): significantly reduce the N2O emission from soils
- Loss of NO3-N + NH4-N in mg N/10 g soil in 48 h ([3]; soil type LiHof, UTC 0.54): 0.06 mg N/10 g soil
- Loss of NO3-N + NH4-N in mg N/10 g soil in 48 h ([3]; soil type Sp 2.1, UTC 0.16): 0.03 mg N/10 g soil
- Loss of NO3-N + NH4-N in mg N/10 g soil in 48 h ([3]; soil type Sp 2.2, UTC 0.19): 0.02 mg N/10 g soil
- Loss of NO3-N + NH4-N in mg N/10 g soil in 48 h ([3]; soil type Sp 2.3, UTC 0.38): 0.18 mg N/10 g soil
- Loss of NO3-N + NH4-N in mg N/10 g soil in 48 h ([3]; soil type Sp 2.4, UTC 0.37): 0.13 mg N/10 g soil
- Loss of NO3-N + NH4-N in mg N/10 g soil in 48 h ([3]; soil type Sp 5M, UTC 0.27): 0.10 mg N/10 g soil
- Loss of NO3-N + NH4-N in mg N/10 g soil in 48 h ([3]; soil type Sp 6S, UTC 0.48): 0.21 mg N/10 g soil
- Effect on N2O emission from soil (in words) ([3]; various types of soil, fertilizer applied 1 day after compound (A)): significantly reduce the N2O emission from soil
- Effect on N2O emission from soil (in words) [1]: significantly reduced the N2O emission from soil
- Loss of NO3-N + NH4-N in mg N/10 g soil in 48 h [1]: 0.09 mg N/10 g soil
- Effect on N2O emission from soils (in words) ([4]; combined application of compound (A) and compound (B)): does not result in a reduction of N2O emission from soils
- Mean mg N2O-N/m^2 ([4]; pyraclostrobin 250 g/ha 8 days before the application of the fertilizer (ammonium nitrate 100 kg/ha)): 100.9 mg N2O-N/m^2
- Mean mg N2O-N/m^2 ([4]; pyraclostrobin 250 g/ha together with the application of the fertilizer (ammonium nitrate 100 kg/ha)): 314.9 mg N2O-N/m^2
- Effect on N2O emission from soils (in words) ([4]; pyraclostrobin and ammonium nitrate with time lag of 8 days, compared to fertilizer alone or joint application): significantly reduced
